According to ChEMBL document CHEMBL1123114, “Structure-activity relationships of arylimidazopyridine cardiotonics: discovery and inotropic activity of 2-[2-methoxy-4-(methylsulfinyl)phenyl]-1H-imidazo[4,5-c]pyridine” (1985):

Assays:
Format in all cases: functional
Felis catus [1] = species: Felis catus; assay: Compound tested for contractility in isolated cat papillary muscle at 10 e-4 M.
Felis catus [2] = species: Felis catus; assay: Compound tested for contractility in isolated cat papillary muscle at 10 e-5 M.
Felis catus [3] = species: Felis catus; assay: Response ratio = (percent increase to drug)/(percent increase to 10 E-4 M isoproterenol)
Felis catus [4] = species: Felis catus; assay: Response ratio = (percent increase to drug)/(percent increase to 10 E-5 M isoproterenol)

Row | SMILES | Control (Felis catus [1]) [%] | Control (Felis catus [2]) [%] | Response ratio (Felis catus [3]) | Response ratio (Felis catus [4])
1 | COc1c(C)cc(-c2nc3cc[nH]cc-3n2)cc1C | 213 | 121 | 1.57 | 0.29
2 | COc1cc(OC)c(-c2nc3cc[nH]cc-3n2)c(OC)c1 | 137 | 103 | 0.51 | 0.04
3 | COc1cc(OC)c(-c2nc3cc[nH]cc-3n2)cc1OC | 129 | 108 | 0.4 | 0.12
4 | CCOc1cc(SC)ccc1-c1nc2cc[nH]cc-2n1 | 149 | 122 | 0.68 | 0.3
5 | COc1cc(N(C)C)ccc1-c1nc2cc[nH]cc-2n1 | 165 | 102 | 0.9 | 0.03
6 | COc1cccc(OC)c1-c1nc2cc[nH]cc-2n1 | 184 | 78 | 1.16 | -0.31
7 | Cc1ccc(-c2nc3cc[nH]cc-3n2)cc1 | 196 | 97 | 0.96 | -0.04
8 | COc1cc(I)ccc1-c1nc2cc[nH]cc-2n1 | 159 | 139 | 0.82 | 0.54
9 | COc1cc(OCc2ccccc2)ccc1-c1nc2cc[nH]cc-2n1 | 105 | 112 | 0.07 | 0.17
10 | COc1ccc(-c2nc3cc[nH]cc-3n2)c(SC)c1 | 204 | 114 | 1.44 | 0.19
11 | COCCCOc1cc(OC)ccc1-c1nc2cc[nH]cc-2n1 | 147 | 99 | 0.65 | -0.01
12 | COc1ccc(-c2nc3cc[nH]cc-3n2)c([S+](C)[O-])c1 (configuration not stated) | 116 | 107 | 0.22 | 0.1
13 | CCCSc1ccc(-c2nc3cc[nH]cc-3n2)c(OC)c1 | 139 | 125 | 0.54 | 0.35
14 | c1ccc(Sc2ccc(-c3nc4cc[nH]cc-4n3)cc2)cc1 | 124 | 122 | 0.33 | 0.31
15 | CSc1ccc(-c2nc3cc[nH]cc-3n2)c(SC)c1 | 161 | 113 | 0.84 | 0.18
16 | COc1ccc(-c2nc3cc[nH]cc-3n2)c(OCC[S+]([O-])c2ccccc2)c1 (configuration not stated) | 96 | 107 | -0.05 | 0.1
17 | CCOc1cc(OC)ccc1-c1nc2cc[nH]cc-2n1 | 130 | 108 | 0.41 | 0.11
18 | COc1ccc(-c2nc3cc[nH]cc-3n2)c(OCCSc2ccccc2)c1 | 109 | 103 | 0.12 | 0.04
19 | Clc1cc(Cl)cc(-c2nc3cc[nH]cc-3n2)c1 | 146 | 115 | 0.64 | 0.21
20 | CCCCCOc1cc(OC)ccc1-c1nc2cc[nH]cc-2n1 | 81 | 105 | -0.26 | 0.07
21 | COc1cccc(-c2nc3cc[nH]cc-3n2)c1OC | 90 | 102 | -0.14 | 0.03
22 | Fc1ccccc1-c1nc2cc[nH]cc-2n1 | 145 | 107 | 0.63 | 0.1
23 | Fc1cccc(-c2nc3cc[nH]cc-3n2)c1 | 157 | 112 | 0.79 | 0.17
